From US4401660A, “Ester derivatives of 5-O-mycaminosyl tylonolide and method of using same” (Eli Lilly and Company, priority 1981, dated 1983)
Read-outs that look alike come from different tables or passages of the source.

Legend:
[1] = system: Pasteurella multocida 68C; test: MIC, broth-dilution microtiter test (Table III); assay type: cell-based; design: unit not given here
Experimental: (§1) The MIC's in Table II were determined by standard agar-dilution assays. The MIC's in Table III were obtained using a conventional broth-dilution microtiter test.

[2] = system: Streptococcus sp. 80; test: MIC, broth-dilution microtiter test (Table III); assay type: cell-based; design: unit not given here
Experimental: as §1

[3] = system: Pasteurella multocida 60A; test: MIC, broth-dilution microtiter test (Table III); assay type: cell-based; design: unit not given here; settings: avian isolate
Experimental: as §1

[4] = system: Pasteurella multocida 40G; test: MIC, broth-dilution microtiter test (Table III); assay type: cell-based; design: unit not given here
Experimental: as §1

[5] = system: Staphylococcus aureus; test: MIC, broth-dilution microtiter test (Table III); assay type: cell-based; design: unit not given here
Experimental: as §1

[6] = system: Mycoplasma synoviae; test: MIC, broth-dilution microtiter test (Table III); assay type: cell-based; design: unit not given here
Experimental: as §1

[7] = system: Mycoplasma gallisepticum; test: MIC, broth-dilution microtiter test (Table III); assay type: cell-based; design: unit not given here
Experimental: as §1

[8] = system: Pasteurella haemolytica 22C; test: MIC, broth-dilution microtiter test (Table III); assay type: cell-based; design: unit not given here
Experimental: as §1

[9] = system: Pasteurella multocida 17E; test: MIC, broth-dilution microtiter test (Table III); assay type: cell-based; design: unit not given here; settings: bovine isolate
Experimental: as §1

[10] = system: Pasteurella haemolytica 41D; test: MIC, broth-dilution microtiter test (Table III); assay type: cell-based; design: unit not given here
Experimental: as §1

[11] = system: Mycoplasma hyorhinis; test: MIC, broth-dilution microtiter test (Table III); assay type: cell-based; design: unit not given here
Experimental: as §1

[12] = system: Pasteurella haemolytica 23C; test: MIC, broth-dilution microtiter test (Table III); assay type: cell-based; design: unit not given here
Experimental: as §1

[13] = system: Pasteurella multocida 22A; test: MIC, broth-dilution microtiter test (Table III); assay type: cell-based; design: unit not given here
Experimental: as §1

[14] = system: Pasteurella multocida; test: Treatment of Pasteurella infections in chicks (Table V); assay type: in vivo, one-day-old chicks; settings: Pasteurella multocida, sc, 4 h; 30 mg/kg by subcutaneous injection one and four hours post challenge; read-out: Deaths in Treated Chicks/Number Treated (converted)
Summary of the method: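 One-day-old chicks challenged subcutaneously with avian P. multocida (0.1 ml of 10^-3 dilution of 20-hour tryptose broth culture). Esters given at 30 mg/kg subcutaneously at 1 and 4 hours post challenge. Untreated infected controls, ten per group.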

[15] = system: Streptococcus pyogenes C203; test: ED50 in mice with experimental infections (Table IV); assay type: in vivo; settings: Streptococcus pyogenes, doses given 1 and 4 hours postinfection
Summary of the method: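 Mice with experimental infections received test compound twice, at 1 and 4 h postinfection. ED50 is the dose in mg/kg (per administration, ×2) protecting 50% of animals.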

[16] = system: Staphylococcus aureus V41; test: MIC, standard agar-dilution assay (Table II); assay type: cell-based; design: unit not given here; settings: Staphylococcus aureus V41, penicillin-resistant strain
Experimental: as §1

[17] = system: Streptococcus Group D X66; test: MIC, standard agar-dilution assay (Table II); assay type: cell-based; design: unit not given here
Experimental: as §1

[18] = system: Haemophilus influenzae R252; test: MIC, standard agar-dilution assay (Table II); assay type: cell-based; design: unit not given here; settings: Haemophilus influenzae R252, ampicillin-resistant strain
Experimental: as §1

[19] = system: Staphylococcus epidermidis EPI1; test: MIC, standard agar-dilution assay (Table II); assay type: cell-based; design: unit not given here
Experimental: as §1

[20] = system: Staphylococcus epidermidis EPI2; test: MIC, standard agar-dilution assay (Table II); assay type: cell-based; design: unit not given here
Experimental: as §1

[21] = system: Staphylococcus aureus X400; test: MIC, standard agar-dilution assay (Table II); assay type: cell-based; design: unit not given here; settings: Staphylococcus aureus X400, methicillin-resistant strain
Experimental: as §1

[22] = system: Haemophilus influenzae Holt; test: MIC, standard agar-dilution assay (Table II); assay type: cell-based; design: unit not given here; settings: ampicillin-sensitive strain
Experimental: as §1

[23] = system: Streptococcus Group D 9960; test: MIC, standard agar-dilution assay (Table II); assay type: cell-based; design: unit not given here
Experimental: as §1

[24] = system: Streptococcus pyogenes C203; test: MIC, standard agar-dilution assay (Table II); assay type: cell-based; design: unit not given here
Experimental: as §1

[25] = system: Staphylococcus aureus X1.1; test: MIC, standard agar-dilution assay (Table II); assay type: cell-based; design: unit not given here
Experimental: as §1

[26] = system: Staphylococcus aureus S13E; test: MIC, standard agar-dilution assay (Table II); assay type: cell-based; design: unit not given here
Experimental: as §1

[27] = system: Streptococcus pneumoniae Park I; test: MIC, standard agar-dilution assay (Table II); assay type: cell-based; design: unit not given here
Experimental: as §1

CCC(=O)OCC1C=C(C)C=CC(=O)C(C)CC(CC=O)C(OC2OC(C)C(O)C(N(C)C)C2OC(C)=O)C(C)C(O)CC(=O)OC1CC (stereo not shown) [Compound 12, 2'-O-Acetyl-23-O-propionyl-OMT]
minimal inhibitory concentration (MIC) [1]: 1.56 | minimal inhibitory concentration (MIC) [2]: 0.39 | minimal inhibitory concentration (MIC) [3]: 1.56 | minimal inhibitory concentration (MIC) [4]: 0.78 | minimal inhibitory concentration (MIC) [5]: 0.39 | minimal inhibitory concentration (MIC) [6]: < 0.05 | minimal inhibitory concentration (MIC) [7]: < 0.05 | minimal inhibitory concentration (MIC) [8]: 6.25 | minimal inhibitory concentration (MIC) [9]: 1.56 | minimal inhibitory concentration (MIC) [10]: 3.12 | minimal inhibitory concentration (MIC) [11]: 3.12 | minimal inhibitory concentration (MIC) [12]: 3.12 | minimal inhibitory concentration (MIC) [13]: 0.78 | mortality at 30 mg/kg [14]: 0% | ED50 ([15]; C203, oral, read-out: ED50, Oral): 150 mg/kg | ED50 ([15]; C203, sc, subcutaneous, read-out: ED50, Subcutaneous): 8.1 mg/kg | minimal inhibitory concentration (MIC) [16]: 0.5 | minimal inhibitory concentration (MIC) [17]: 0.5 | minimal inhibitory concentration (MIC) [18]: 8 | minimal inhibitory concentration (MIC) [19]: 0.25 | minimal inhibitory concentration (MIC) [20]: 0.25 | minimal inhibitory concentration (MIC) [21]: 0.5 | minimal inhibitory concentration (MIC) [22]: 2 | minimal inhibitory concentration (MIC) [23]: 0.5 | minimal inhibitory concentration (MIC) [24]: 0.25 | minimal inhibitory concentration (MIC) [25]: 0.5 | minimal inhibitory concentration (MIC) [26]: 0.5 | minimal inhibitory concentration (MIC) [27]: 0.125
